Earlier results as cited in PubChem BioAssay AID1259409 (Chemical Carcinogenesis Research Information System (CCRIS), 2018).

System: rodent chemically induced tumor inhibition, incidence and multiplicity
Test: CCRIS tumor inhibitor studies
Settings: Route [Inhibitor]: ORAL

S=C=NCCc1ccccc1
tumour outcome (control, treated, inhibition, significance) (Carcinogen: N-NITROSOBIS(2-OXOPROPYL)AMINE [60599-38-4], Dose [Inhibitor]: 3 UMOL IN DIET FOR 49 WK BEGINNING 2 WK POST LAST CARCINOGEN DOSE (STUDY DURATION: 52 WK), Species: HAMSTER, Strain/Sex: SYRIAN/FEMALE, Target Tissue: Type of Lesion: LUNG: ADENOCARCINOMA, Dose [Carcinogen]: 20 MG/KG BW 1X/WK FOR 2 WK (STUDY DURATION: 52 WK), Promoter: NONE): 14/25 (56.0%), 12/28 (42.9%), 23%, not significant | tumour outcome (control, treated, inhibition, significance) (Carcinogen: N-NITROSOBIS(2-OXOPROPYL)AMINE [60599-38-4], Dose [Inhibitor]: 3 UMOL IN DIET FOR 49 WK BEGINNING 2 WK POST LAST CARCINOGEN DOSE (STUDY DURATION: 52 WK), Species: HAMSTER, Strain/Sex: SYRIAN/FEMALE, Target Tissue: Type of Lesion: LUNG: ADENOMA, Dose [Carcinogen]: 20 MG/KG BW 1X/WK FOR 2 WK (STUDY DURATION: 52 WK), Promoter: NONE): 20/25 (88.0%), 26/28 (92.9%), -6%, not significant | tumour outcome (control, treated, inhibition, significance) (Carcinogen: N-NITROSOBIS(2-OXOPROPYL)AMINE [60599-38-4], Dose [Inhibitor]: 3 UMOL IN DIET FOR 49 WK BEGINNING 2 WK POST LAST CARCINOGEN DOSE (STUDY DURATION: 52 WK), Species: HAMSTER, Strain/Sex: SYRIAN/FEMALE, Target Tissue: Type of Lesion: PANCREAS: ADENOCARCINOMA, Dose [Carcinogen]: 20 MG/KG BW 1X/WK FOR 2 WK (STUDY DURATION: 52 WK), Promoter: NONE): 20/25 (80.0%), 22/28 (78.6%), 2%, not significant | tumour outcome (control, treated, inhibition, significance) (Carcinogen: N-NITROSOBIS(2-OXOPROPYL)AMINE [60599-38-4], Dose [Inhibitor]: 6 UMOL IN DIET FOR 49 WK BEGINNING 2 WK POST LAST CARCINOGEN DOSE (STUDY DURATION: 52 WK), Species: HAMSTER, Strain/Sex: SYRIAN/FEMALE, Target Tissue: Type of Lesion: LIVER: HEPATOCELLULAR ADENOMA, Dose [Carcinogen]: 20 MG/KG BW 1X/WK FOR 2 WK (STUDY DURATION: 52 WK), Promoter: NONE): 18/25 (72.0%), 16/28 (57.1%), 21%, not significant | tumour outcome (control, treated, inhibition, significance) (Carcinogen: N-NITROSOBIS(2-OXOPROPYL)AMINE [60599-38-4], Dose [Inhibitor]: 6 UMOL IN DIET FOR 49 WK BEGINNING 2 WK POST LAST CARCINOGEN DOSE (STUDY DURATION: 52 WK), Species: HAMSTER, Strain/Sex: SYRIAN/FEMALE, Target Tissue: Type of Lesion: LUNG: ADENOCARCINOMA, Dose [Carcinogen]: 20 MG/KG BW 1X/WK FOR 2 WK (STUDY DURATION: 52 WK), Promoter: NONE): 14/25 (56.0%), 11/28 (39.3%), 30%, not significant | tumour outcome (control, treated, inhibition, significance) (Carcinogen: N-NITROSOBIS(2-OXOPROPYL)AMINE [60599-38-4], Dose [Inhibitor]: 6 UMOL IN DIET FOR 49 WK BEGINNING 2 WK POST LAST CARCINOGEN DOSE (STUDY DURATION: 52 WK), Species: HAMSTER, Strain/Sex: SYRIAN/FEMALE, Target Tissue: Type of Lesion: LUNG: ADENOMA, Dose [Carcinogen]: 20 MG/KG BW 1X/WK FOR 2 WK (STUDY DURATION: 52 WK), Promoter: NONE): 20/25 (88.0%), 24/28 (85.7%), 3%, not significant | tumour outcome (control, treated, inhibition, significance) (Carcinogen: N-NITROSOBIS(2-OXOPROPYL)AMINE [60599-38-4], Dose [Inhibitor]: 6 UMOL IN DIET FOR 49 WK BEGINNING 2 WK POST LAST CARCINOGEN DOSE (STUDY DURATION: 52 WK), Species: HAMSTER, Strain/Sex: SYRIAN/FEMALE, Target Tissue: Type of Lesion: PANCREAS: ADENOCARCINOMA, Dose [Carcinogen]: 20 MG/KG BW 1X/WK FOR 2 WK (STUDY DURATION: 52 WK), Promoter: NONE): 20/25 (80.0%), 25/28 (89.3%), -12%, not significant | tumour outcome (control, treated, inhibition, significance) (Carcinogen: N-NITROSOMETHYLBENZYLAMINE, 937-40-6, Dose [Inhibitor]: 0, 0.325 UMOL/G OF DIET FOR 25 WK BEGINNING 2 WK PRIOR TO CARCINOGEN TREATMENT (STUDY DURATION: 25 WK), Species: RAT, Strain/Sex: F344/MALE, Target Tissue: Type of Lesion: ESOPHAGUS: TUMORS, Dose [Carcinogen]: 0.5 MG/KG 1/WK FOR 15 WK, Promoter: NONE USED): 100%, 100%, 0%, not significant | tumour outcome (control, treated, inhibition, significance) (Carcinogen: N-NITROSOMETHYLBENZYLAMINE, 937-40-6, Dose [Inhibitor]: 0, 0.4 UMOL/G IN DIET FOR 25 WK BEGINNING 2 WK PRIOR TO CARCINOGEN TREATMENT (STUDY DURATION: 25 WK), Species: RAT, Strain/Sex: F344/MALE, Target Tissue: Type of Lesion: ESOPHAGUS: TUMOR, Dose [Carcinogen]: 0.5 MG/KG BW IN 20% DMSO 1/WK FOR 15 WK, Promoter: NONE USED): 100%, 57%, 43%, not significant | tumour outcome (control, treated, inhibition, significance) (Carcinogen: N-NITROSOMETHYLBENZYLAMINE, 937-40-6, Dose [Inhibitor]: 0, 0.75 UMOL/G OF DIET FOR 25 WK BEGINNING 2 WK PRIOR TO CARCINOGEN TREATMENT (STUDY DURATION: 25 WK), Species: RAT, Strain/Sex: F344/MALE, Target Tissue: Type of Lesion: ESOPHAGUS: TUMORS, Dose [Carcinogen]: 0.5 MG/KG 1/WK FOR 15 WK, Promoter: NONE USED): 100%, 100%, 0%, not significant | tumour outcome (control, treated, inhibition, significance) (Carcinogen: N-NITROSOMETHYLBENZYLAMINE, 937-40-6, Dose [Inhibitor]: 0, 1 UMOL/G IN DIET FOR 25 WK BEGINNING 2 WK PRIOR TO CARCINOGEN TREATMENT (STUDY DURATION: 25 WK), Species: RAT, Strain/Sex: F344/MALE, Target Tissue: Type of Lesion: ESOPHAGUS: TUMOR, Dose [Carcinogen]: 0.5 MG/KG BW IN 20% DMSO 1/WK FOR 15 WK, Promoter: NONE USED): 100%, 40%, 60%, p<0.05 | tumour outcome (control, treated, inhibition, significance) (Carcinogen: N-NITROSOMETHYLBENZYLAMINE, 937-40-6, Dose [Inhibitor]: 0, 1.5 UMOL/G OF DIET FOR 25 WK BEGINNING 2 WK PRIOR TO CARCINOGEN TREATMENT (STUDY DURATION: 25 WK), Species: RAT, Strain/Sex: F344/MALE, Target Tissue: Type of Lesion: ESOPHAGUS: TUMORS, Dose [Carcinogen]: 0.5 MG/KG 1/WK FOR 15 WK, Promoter: NONE USED): 100%, 60%, 40%, p<0.01 | tumour outcome (control, treated, inhibition, significance) (Carcinogen: N-NITROSOMETHYLBENZYLAMINE, 937-40-6, Dose [Inhibitor]: 0, 2.5 UMOL/G IN DIET FOR 25 WK BEGINNING 2 WK PRIOR TO CARCINOGEN TREATMENT (STUDY DURATION: 25 WK), Species: RAT, Strain/Sex: F344/MALE, Target Tissue: Type of Lesion: ESOPHAGUS: TUMOR, Dose [Carcinogen]: 0.5 MG/KG BW IN 20% DMSO 1/WK FOR 15 WK, Promoter: NONE USED): 100%, 7%, 93%, p<0.05 | tumour outcome (control, treated, inhibition, significance) (Carcinogen: N-NITROSOMETHYLBENZYLAMINE, 937-40-6, Dose [Inhibitor]: 0, 3 UMOL/G OF DIET FOR 25 WK BEGINNING 2 WK PRIOR TO CARCINOGEN TREATMENT (STUDY DURATION: 25 WK), Species: RAT, Strain/Sex: F344/MALE, Target Tissue: Type of Lesion: ESOPHAGUS: TUMORS, Dose [Carcinogen]: 0.5 MG/KG 1/WK FOR 15 WK, Promoter: NONE USED): 100%, 0%, 100%, p<0.01 | tumour outcome (control, treated, inhibition, significance) (Carcinogen: N-NITROSOMETHYLBENZYLAMINE, 937-40-6, Dose [Inhibitor]: 0, 500 PPM IN DIET FOR DURATION OF STUDY BEGINNING 1 WK POST CARCINOGEN TREATMENT (STUDY DURATION: 25 WK), Species: RAT, Strain/Sex: F344/MALE, Target Tissue: Type of Lesion: ESOPHAGUS: TUMOR, Dose [Carcinogen]: 1 MG/KG 3/WK FOR 5 WK, Promoter: NONE USED): 15/15 (100%), 14/15 (93%), 7%, not significant | tumour outcome (control, treated, inhibition, significance) (Carcinogen: N-NITROSOMETHYLBENZYLAMINE, 937-40-6, Dose [Inhibitor]: 0, 500 PPM IN DIET FOR DURATION OF STUDY BEGINNING 2 WK PRIOR TO CARCINOGEN TREATMENT (STUDY DURATION: 25 WK), Species: RAT, Strain/Sex: F344/MALE, Target Tissue: Type of Lesion: ESOPHAGUS: TUMOR, Dose [Carcinogen]: 1 MG/KG 3/WK FOR 5 WK, Promoter: NONE USED): 15/15 (100%), 7/15 (47%), 53%, p<0.01
